Laboratory results published in US12661410B2, “Compounds for targeted degradation of RET” (C4 Therapeutics, Inc., priority 2020, dated 2026).
Numbering of substitutions follows the chain as printed. Like-named read-outs stand apart in the source and are kept apart here.

Columns and labels:
RET (658-1114) = molecular target: T1, RET (658-1114) (Homo sapiens, UniProt P07949); assay: HiBiT-Degradation, RET wild-type degradation assay (Nano-Glo HiBiT Lytic), 293T.144 cells; format: cell-based; settings: for DC50 / Emax: 6.0 hours; for DC50: read-out: 293T.144 RET (658-1114) 6.0 hours (DC50); for Emax: read-out: 293T.144 RET (658-1114) 6.0 hours (Emax)
T1 construct: 658-1114; expressed in transfected cells; host or cells: 293T.144 (293T cells, generated in-house)
T1 sequence (P07949 658-1114): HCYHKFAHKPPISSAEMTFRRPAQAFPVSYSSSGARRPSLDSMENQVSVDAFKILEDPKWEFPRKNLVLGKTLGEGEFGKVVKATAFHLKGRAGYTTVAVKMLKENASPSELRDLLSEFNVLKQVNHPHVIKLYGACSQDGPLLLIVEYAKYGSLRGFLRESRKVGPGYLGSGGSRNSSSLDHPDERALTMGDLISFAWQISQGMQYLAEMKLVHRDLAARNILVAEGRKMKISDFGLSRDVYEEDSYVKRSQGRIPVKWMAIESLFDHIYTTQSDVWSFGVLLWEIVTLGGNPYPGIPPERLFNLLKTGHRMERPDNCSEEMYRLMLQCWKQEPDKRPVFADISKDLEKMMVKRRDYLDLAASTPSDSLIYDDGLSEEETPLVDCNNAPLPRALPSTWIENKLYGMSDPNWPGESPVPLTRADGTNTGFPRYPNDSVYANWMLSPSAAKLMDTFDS
How it was run: (§1)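 6 h treatment, 293T.144 (WT) / 293T.165 (G810R) cells ectopically expressing HiBiT-fused RET KD; 11-pt half-log dilution, top 10 μM, n=2. Nano-Glo HiBiT lytic detection, luminescence. Output: DC50, Emax (% protein remaining).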

RET(KD: 658-1114 G810R) = molecular target: T2, RET(KD: 658-1114 G810R) (Homo sapiens, UniProt P07949, G810R); assay: HiBiT-Degradation, RET G810R degradation assay (Nano-Glo HiBiT Lytic), 293T.165 cells; format: cell-based; settings: for Emax / DC50: 6.0 hours; for Emax: % remaining protein, read-out: 293T.165 RET(KD: 658-1114 G810R) 6.0 hours (Emax); for DC50: read-out: 293T.165 RET(KD: 658-1114 G810R) 6.0 hours (DC50)
T2 construct: 658-1114; expressed in transfected cells; host or cells: 293T.165 (293T cells, generated in-house)
T2 sequence (P07949 658-1114 G810R): T1 sequence (P07949 658-1114) with G153R
How it was run: as §1

[1] = half-maximal degradation concentration

Compound | 293T.144 RET (658-1114) 6.0 hours (IP) [nM] (RET (658-1114); HiBiT-Degradation) | DC50 (RET (658-1114); HiBiT-Degradation) | Emax (RET (658-1114); HiBiT-Degradation) | Emax (RET(KD: 658-1114 G810R)) | DC50 (RET(KD: 658-1114 G810R); [1]) | 293T.165 RET(KD: 658-1114 G810R) 6.0 hours (Emax) (RET(KD: 658-1114 G810R); HiBiT-Degradation) | 293T.165 RET(KD: 658-1114 G810R) 6.0 hours (IP) [nM] (RET(KD: 658-1114 G810R); HiBiT-Degradation) | DC50 (RET(KD: 658-1114 G810R); HiBiT-Degradation) | 293T.144 RET (658-1114) 6.0 hours (IP) [nM] (RET (658-1114)) | Emax (RET (658-1114); % remaining protein) | DC50 (RET (658-1114); [1]) | 293T.165 RET(KD: 658-1114 G810R) 6.0 hours (IP) [nM] (RET(KD: 658-1114 G810R))
CCC1(C(=O)NC(C)C)CCN(c2ccc(-c3nc(-c4cnn(C5CCN(C(=O)CC6(O)CCN(c7ccc(NC8CCC(=O)NC8=O)cc7F)CC6)CC5)c4)cn4ncc(C#N)c34)cn2)CC1 (stereo not drawn) [Compound 30, 1-(5-(3-Cyano-6-(1-(1-(2-(1-(4-((2,6-dioxopiperidin-3-yl)amino)-2-fluorophenyl)-4-hydroxypiperidin-4-yl)acetyl)piperidin-4-yl)-1H-pyrazol-4-yl)pyrazolo[1,5-a]pyrazin-4-yl)pyridin-2-yl)-4-ethyl-N-isopropylpiperidine-4-carboxamide] | ++++ (< 50 nM = ++++) | < 50 nM | < 30% | < 50% | < 50 nM | +++ (<50% = +++) | ++++ (< 50 nM = ++++) | < 50 nM |  |  |  | 
CC(=O)N1CCN(c2ccc(-c3nc(-c4ccc(N5CCN(C(=O)CN6CCC(c7ccc(NC8CCC(=O)NC8=O)cc7)CC6)CC5)cc4)cn4ncc(C#N)c34)cn2)CC1 (stereo not drawn) [Compound 27, 4-(6-(4-acetylpiperazin-1-yl)pyridin-3-yl)-6-(4-(4-(2-(4-(4-((2,6-dioxopiperidin-3-yl)amino)phenyl)piperidin-1-yl)acetyl)piperazin-1-yl)phenyl)pyrazolo[1,5-a]pyrazine-3-carbonitrile] | ++++ (< 50 nM = ++++) | < 50 nM | < 30% | < 30% | < 50 nM | ++++ (< 30% = ++++) | ++++ (< 50 nM = ++++) | < 50 nM |  |  |  | 
N#Cc1cnn2cc(-c3cnn([C@H]4CC[C@@H](N5CCN(c6c(F)cc(NC7CCC(=O)NC7=O)cc6F)CC5)CC4)c3)nc(-c3ccc(N4CCC5(CC4)CCN5c4nccc(Cl)n4)nc3)c12 (single isomer, unassigned) [Compound 204, 4-(6-(1-(4-Chloropyrimidin-2-yl)-1,7-diazaspiro[3.5]nonan-7-yl)pyridin-3-yl)-6-(1-((1s, 4s)-4-(4-(4-((2,6-dioxopiperidin-3-yl)amino)-2,6-difluorophenyl)piperazin-1-yl)cyclohexyl)-1H-pyrazol-4-yl)pyrazolo[1,5-a]pyrazine-3-carbonitrile] |  |  |  | < 30% | < 100 nM |  |  |  | ++++ (<50 nM = ++++) | < 30% | < 50 nM | +++ (<100 nM = +++)
C[C@H](c1ccccn1)N1CCN(c2ccc(-c3nc(-c4cnn(C5CCN(C(=O)CC6(O)CCN(c7ccc(NC8CCC(=O)NC8=O)cc7F)CC6)CC5)c4)cn4ncc(C#N)c34)cn2)CC1 (stereo partly drawn) [Compound 1, 6-[1-[1-[2-[1-[4-[(2,6-dioxo-3-piperidyl)amino]-2-fluoro-phenyl]-4-hydroxy-4-piperidyl]acetyl]-4-piperidyl]pyrazol-4-yl]-4-[6-[4-[(1R)-1-(2-pyridyl)ethyl]piperazin-1-yl]-3-pyridyl]pyrazolo[1,5-a]pyrazine-3-carbonitrile] | ++++ (< 50 nM = ++++) | < 50 nM | < 30% | < 50% | < 50 nM | +++ (<50% = +++) | ++++ (< 50 nM = ++++) | < 50 nM |  |  |  | 
